Measurements as given in patent US9314506B2, “Methods for increasing insulin secretion by co-stimulation of corticotropin-releasing factor receptors” (Research Development Foundation, priority 2011, dated 2016).

B1: Ucn 1: Urocortin 1, agonist of both CRF1 and CRF2 receptors, expressed transgenically in mouse beta cells under doxycycline control (protein, listed as Homo sapiens)
chain: MRQAGRAALLAALLLLVQLCPGSSQRSPEAAGVQDPSLRWSPGARNQGGGARALLLLLAERFPRRAGPGRLGLGTAGERPRRDNPSLSIDLTFHLLRTLLELARTQSQRERAEQNRIIFDSVGK

Legend:
Human islets = test: Insulin secretion from cultured human islets (insulin ELISA); format: cell-based; details: FIG. 1; for Insulin secretion, single agonist: human islets, 60 min stimulation with glucose and peptide, single CRF receptor agonist added
Protocol: Human islets were handpicked twice and cultured overnight in CMRL-1066 medium (Invitrogen™) supplemented with 10% fetal bovine serum (FBS) and penicillin/streptomycin at 37° C., 5% CO2. Islets were starved in RPMI 1640 medium supplemented with 1.4 mM glucose and 0.1% BSA for 60 min and then were transferred into 1.2 mL of medium (RPMI 1640 supplemented with 2.8 mM glucose, 0.1% BSA) in 24-well plates at 100 islets/well. After 60 min, 600 μL of medium was collected for the determination of basal insulin release, and then islets were stimulated for 60 min with glucose and peptide as indicated in RPMI 1640 containing 0.1% BSA. Samples were diluted 20 times in RPMI 1640 with 0.1% BSA and were stored at −20° C. until determination of insulin concentrations with an insulin ELISA kit (Mercodia AB).
Peptides used in the studies were ovine CRF (oCRF), a selective CRF-R1 agonist; human Urocortin 3 (hUcn 3), a selective CRF-R2 agonist; antalarmin, a selective CRF-R1 antagonist; and astressin2-B, a selective CRF-R2 antagonist. […] Insulin secretion was enhanced by addition of either a CRF1 receptor agonist (oCRF) or a CRF2 receptor agonist (hUcn 3). […] The synergistic enhancement was inhibited by the addition of either a CRF1 receptor antagonist (antalarmin) or a CRF2 receptor antagonist (astressin2-B) to the cells (FIG. 1).

[1] = system: pancreatic beta cell mass; test: Beta cell mass in doxycycline-inducible, beta cell-specific Ucn 1 transgenic mice; format: in vivo; details: bitransgenic mouse, doxycycline for 6 weeks (21 days to 9 weeks of age), vs single transgenic controls on dox or bitransgenic without dox; FIG. 5
Description: A transgenic mouse model that features beta cell-specific, doxycycline-inducible expression of Ucn 1 was generated by routine transgenic techniques. Single transgenic mice were obtained comprising either an expressible tetracycline transactivator (tTA) protein under the control of a pancreas-specific Insulin2 promoter (Jax Stock#008250 STOCK Tg(Ins2-rtTA)2Efr/J) or expressible Ucn1 under the control of a tTA protein-activated promoter (see, e.g., Sun et al., 2007 and Mallo, 2006). Single transgenic mice were crossed to generate the bitransgenic mice referenced in the studies. Thus, transgenic Ucn 1 expression in beta cells requires the presence of two transgenic cassettes as well as the administration of doxycycline. […] Bitransgenic animals, along with single transgenic controls, were administered doxycyline continuously as indicated from 21 days until 9 weeks of age. […] Sections were mounted in fluorescence mounting media containing dapi counterstain. Each section was scanned and the total pancreas surface area (based on the dapi counterstain) and the total beta cell surface area (based on the insulin-Cy3 stain) were quantified using standard morphometry techniques using Metamorph software. Beta cell area in each animal was expressed as the insulin+ surface area as a percentage of the total surface area (FIG. 5).

Row | Molecule | Insulin secretion, single agonist (Human islets) | also measured
1 | CCCCN(CC)c1nc(C)nc2c1c(C)c(C)n2-c1c(C)cc(C)cc1C [antalarmin] |  | Effect of antagonist on the synergistic enhancement of insulin secretion (Human islets; human islets co-stimulated with CRF1 and CRF2 receptor agonists, antagonist added): inhibited
2 | hUcn 3: human Urocortin 3, a selective CRF-R2 agonist (FTLSLDVPTNIMNLLFNIAKAKNLRAQAAANAHLMAQI) | enhanced | 
3 | oCRF: ovine CRF, a selective CRF-R1 agonist (SQEPPISLDLTFHLLREVLEMTKADQLAQQAHSNRKLLDIA) | enhanced | 
4 | B1 |  | Beta cell mass (insulin+ surface area as a percentage of total pancreas surface area) [1]: robust increase
